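Values below derive from 48-hour exposures of cells grown in 96-well plates, with endpoints linearly interpolated between the two concentrations bracketing the appropriate inhibition level. At the TGI there is no net growth.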

Some test systems named below: LOX IMVI melanoma; OVCAR-5 ovarian; K-562 leukemia; UO-31 renal; T-47D breast; NCI/ADR-RES ovarian; OVCAR-8 ovarian; TK-10 renal; MDA-MB-231 breast; HOP-92 NSCLC; OVCAR-3 ovarian; SK-OV-3 ovarian; HCT-15 colon; EKVX NSCLC; RXF 393 renal; ACHN renal; CAKI-1 renal; CCRF-CEM leukemia; SF-539 CNS; SK-MEL-2 melanoma.
Holding throughout (assay): DTP human tumour cell line panel, 48 h

Regarding `Nc1ccc(S(=O)(=O)c2ccc(NC(=O)c3cccnc3)cc2)cc1`, the TGI in the assay on LOX IMVI melanoma, in the assay with OVCAR-5 ovarian, in the assay on K-562 leukemia, in the assay with UO-31 renal, in the assay with T-47D breast and in the assay on NCI/ADR-RES ovarian was above 100 µM in each case. The TGI in the assay with OVCAR-8 ovarian, with TK-10 renal, in the assay with MDA-MB-231 breast, in the assay on HOP-92 NSCLC, in the assay with OVCAR-3 ovarian and in the assay on SK-OV-3 ovarian was above 100 µM throughout. The TGI with HCT-15 colon, with EKVX NSCLC, in the assay on RXF 393 renal, in the assay with ACHN renal and in the assay on CAKI-1 renal was above 100 µM in each case.

Consider `O=C(CC(C(=O)c1cccs1)c1ccsc1)c1ccsc1` (stereo not given), for which the TGI in the assay with CCRF-CEM leukemia, in the assay with LOX IMVI melanoma, with OVCAR-5 ovarian, in the assay on K-562 leukemia, with UO-31 renal and with T-47D breast was above 100 µM throughout. Further, the TGI with NCI/ADR-RES ovarian is 63.6 µM; in the assay with OVCAR-8 ovarian it was above 100 µM; in the assay with TK-10 renal, above 100 µM; in the assay with MDA-MB-231 breast, above 100 µM; with HOP-92 NSCLC, above 100 µM; with SF-539 CNS, 94.8 µM. For the same compound, the TGI in the assay on OVCAR-3 ovarian, with SK-OV-3 ovarian, with HCT-15 colon, in the assay on EKVX NSCLC, in the assay on RXF 393 renal and with ACHN renal was above 100 µM throughout.

With `CCCCCCCCCCCC1N=C(N)NC(CCCO)=C1C(=O)OC` (stereo not given), the TGI in the assay with CCRF-CEM leukemia came out at 3.79 µM; in the assay on OVCAR-5 ovarian it was 16.6 µM; in the assay with K-562 leukemia, 4.49 µM; in the assay on UO-31 renal, 38.1 µM; in the assay with T-47D breast, 17.5 µM; with NCI/ADR-RES ovarian, 49.5 µM. Besides, the TGI with OVCAR-8 ovarian worked out at 6.25 µM; in the assay on TK-10 renal, 12.5 µM; with MDA-MB-231 breast, 6.6 µM; in the assay with HOP-92 NSCLC, 10.7 µM; in the assay with SF-539 CNS, 33.2 µM; in the assay on OVCAR-3 ovarian, 9.08 µM. In addition, the TGI with SK-OV-3 ovarian was determined as 8.12 µM; in the assay on HCT-15 colon it was 29.7 µM; with EKVX NSCLC, 40.6 µM; with ACHN renal, 17.3 µM; in the assay on CAKI-1 renal it was 27.3 µM.

On to `O=C(CC(C(=O)c1ccsc1)c1ccccc1)c1cccs1` (stereo not given), for which the TGI is above 100 µM in the assay with CCRF-CEM leukemia; above 100 µM with OVCAR-5 ovarian; above 100 µM in the assay on K-562 leukemia; 95.7 µM in the assay with UO-31 renal; 45.3 µM with T-47D breast; 67.9 µM with NCI/ADR-RES ovarian. For the same compound, the TGI in the assay with OVCAR-8 ovarian, in the assay with TK-10 renal, in the assay with MDA-MB-231 breast, with HOP-92 NSCLC, with SF-539 CNS and in the assay with OVCAR-3 ovarian was above 100 µM throughout. Moreover, the TGI in the assay with SK-OV-3 ovarian, with HCT-15 colon, in the assay with EKVX NSCLC, in the assay on RXF 393 renal, in the assay with ACHN renal and in the assay on CAKI-1 renal was above 100 µM in each case.

With `C=C(Br)CN(CC(=C)Br)C(C)=O`, the TGI with CCRF-CEM leukemia, in the assay with LOX IMVI melanoma, in the assay on OVCAR-5 ovarian, in the assay with K-562 leukemia, in the assay with SK-MEL-2 melanoma and with UO-31 renal was above 100 µM each time. For the same compound, the TGI in the assay with T-47D breast, with NCI/ADR-RES ovarian, with OVCAR-8 ovarian, in the assay on TK-10 renal, in the assay with MDA-MB-231 breast and with SF-539 CNS was above 100 µM in each case. The TGI in the assay on OVCAR-3 ovarian, with SK-OV-3 ovarian, in the assay with HCT-15 colon, with EKVX NSCLC, with RXF 393 renal and in the assay on ACHN renal was above 100 µM each time. The same compound came in with a TGI in the assay on CAKI-1 renal above 100 µM.

Regarding `O=C1CC(CC(OCc2ccccc2)C(COCc2ccccc2)OCc2ccccc2)CC(=O)N1` (stereo not given), the TGI in the assay on CCRF-CEM leukemia is above 100 µM; in the assay on LOX IMVI melanoma, above 100 µM; in the assay on OVCAR-5 ovarian, above 100 µM; in the assay on K-562 leukemia, above 100 µM; in the assay on UO-31 renal it was 58.5 µM; in the assay on T-47D breast, 94.5 µM. For the same compound, the TGI was 97.9 µM in the assay on NCI/ADR-RES ovarian; above 100 µM with OVCAR-8 ovarian; above 100 µM with MDA-MB-231 breast; 86.1 µM in the assay on HOP-92 NSCLC; above 100 µM in the assay on SF-539 CNS; above 100 µM in the assay with OVCAR-3 ovarian. Further, the TGI is above 100 µM in the assay with HCT-15 colon; 92.8 µM in the assay with EKVX NSCLC; above 100 µM in the assay on RXF 393 renal; above 100 µM in the assay with ACHN renal; 76.3 µM in the assay with CAKI-1 renal.

On to `CC1=CCS(=O)(=O)C1C(O)C1=C(C)CCCC1(C)C` (stereo not given), for which the TGI in the assay with CCRF-CEM leukemia, in the assay with LOX IMVI melanoma, in the assay with OVCAR-5 ovarian, in the assay with K-562 leukemia, in the assay on SK-MEL-2 melanoma and in the assay on UO-31 renal was above 100 µM each time. For the same compound, the TGI in the assay on T-47D breast, with NCI/ADR-RES ovarian, in the assay on OVCAR-8 ovarian, in the assay on TK-10 renal, in the assay on MDA-MB-231 breast and in the assay with SF-539 CNS was above 100 µM in each case. The TGI with OVCAR-3 ovarian, in the assay on SK-OV-3 ovarian, in the assay on HCT-15 colon, in the assay with EKVX NSCLC, with RXF 393 renal and in the assay with ACHN renal was above 100 µM each time. The compound further displayed a total growth inhibition concentration (TGI) in the assay on CAKI-1 renal above 100 µM.

The record behind these values is PubChem BioAssay (NCI).
